Measured values reported in patent US9867805B2, “Gelatinase inhibitors and prodrugs” (priority 2010, dated 2018).
In brackets after ≈: the same amount, converted by molar mass. Where a name gives a salt, the structure may show the parent alone. Read-outs that look alike come from different tables or passages of the source.

Experiments:
human MMP-2 [1] = molecular target: T1, human MMP-2 (Homo sapiens, UniProt P08253); assay: biochemical; conditions: for koff: read-out: koff, MMP-2; for kon: read-out: kon, MMP-2
T1 sequence (P08253 110-660): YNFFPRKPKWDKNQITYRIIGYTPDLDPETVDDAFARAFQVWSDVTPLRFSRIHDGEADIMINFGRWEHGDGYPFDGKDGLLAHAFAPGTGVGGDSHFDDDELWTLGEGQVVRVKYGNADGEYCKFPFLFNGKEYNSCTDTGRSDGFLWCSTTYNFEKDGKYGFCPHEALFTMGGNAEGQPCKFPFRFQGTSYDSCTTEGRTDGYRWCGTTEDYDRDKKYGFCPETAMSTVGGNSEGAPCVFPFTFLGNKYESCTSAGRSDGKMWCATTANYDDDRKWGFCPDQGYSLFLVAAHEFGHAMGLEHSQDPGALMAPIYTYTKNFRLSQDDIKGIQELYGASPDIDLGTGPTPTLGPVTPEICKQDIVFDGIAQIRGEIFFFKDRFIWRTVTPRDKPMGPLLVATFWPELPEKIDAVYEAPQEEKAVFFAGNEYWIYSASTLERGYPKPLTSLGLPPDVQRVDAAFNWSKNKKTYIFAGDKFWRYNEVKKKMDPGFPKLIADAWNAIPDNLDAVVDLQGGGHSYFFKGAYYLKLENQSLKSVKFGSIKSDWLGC

[2] = Half-life in human blood at 37° C.; conditions: for half-life: human, blood
human MMP-9 [3] = molecular target: T2, human MMP-9 (Homo sapiens, UniProt P14780); assay: biochemical; conditions: for koff: read-out: koff, MMP-9; for kon: read-out: kon, MMP-9
T2 sequence (P14780 107-707 limits assumed): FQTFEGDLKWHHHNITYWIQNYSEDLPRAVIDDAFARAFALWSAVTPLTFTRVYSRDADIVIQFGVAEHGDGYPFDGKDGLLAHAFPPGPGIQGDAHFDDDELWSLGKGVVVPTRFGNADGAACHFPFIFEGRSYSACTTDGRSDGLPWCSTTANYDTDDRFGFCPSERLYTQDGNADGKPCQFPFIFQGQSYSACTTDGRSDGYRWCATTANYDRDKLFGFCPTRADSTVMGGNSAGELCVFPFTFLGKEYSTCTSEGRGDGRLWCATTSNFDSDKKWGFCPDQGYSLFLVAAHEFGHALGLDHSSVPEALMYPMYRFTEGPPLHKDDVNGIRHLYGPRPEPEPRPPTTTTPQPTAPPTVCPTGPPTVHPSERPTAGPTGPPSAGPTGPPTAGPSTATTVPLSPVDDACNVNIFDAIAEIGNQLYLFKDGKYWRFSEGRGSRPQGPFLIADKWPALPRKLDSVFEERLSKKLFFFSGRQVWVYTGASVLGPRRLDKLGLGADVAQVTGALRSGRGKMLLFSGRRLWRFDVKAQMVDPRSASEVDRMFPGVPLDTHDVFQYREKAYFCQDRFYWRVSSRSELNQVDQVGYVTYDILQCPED

[4] = Half-life in human plasma at 37° C.; conditions: for half-life: human, plasma
human MMP-9 [5] = molecular target: T2, human MMP-9; conditions: read-out: Ki for human MMP-9; background, earlier reports; cited from earlier work
human MMP-2 [6] = molecular target: T1, human MMP-2; conditions: read-out: Ki for human MMP-2; background, earlier reports; cited from earlier work
[7] = Half-life in human liver microsomes
[8] = Half-life in rat liver microsomes
[9] = Half-life in mouse liver microsomes
[10] = rat; cited from earlier work
[11] = mice; cited from earlier work
[12] = cited from earlier work
other MMPs = conditions: background, earlier reports; cited from earlier work
[13] = tested on: Ames II mixed strains and strain TA98; assay: Ames mutagenicity assay (reverse mutations); conditions: with and without rat liver S9 metabolic activation; six concentrations up to 1 mg/mL
MMP-14 [14] = molecular target: T3, MMP-14 (Homo sapiens, UniProt P50281); assay: biochemical
MMP-7 = molecular target: T4, MMP-7 (Homo sapiens, UniProt P09237); conditions: read-out: Ki, MMP-7
T4 sequence (P09237 95-267): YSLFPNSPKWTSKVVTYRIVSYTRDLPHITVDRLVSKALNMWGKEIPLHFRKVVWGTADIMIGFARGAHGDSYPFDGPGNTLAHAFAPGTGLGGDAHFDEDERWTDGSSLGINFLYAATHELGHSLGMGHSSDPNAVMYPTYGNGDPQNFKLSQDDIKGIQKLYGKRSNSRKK

MMP-3 = MMP-3 (Homo sapiens, UniProt P08254); assay: biochemical; conditions: read-out: inhibition of MMP-3
MMP-3, sequence (P08254 100-477): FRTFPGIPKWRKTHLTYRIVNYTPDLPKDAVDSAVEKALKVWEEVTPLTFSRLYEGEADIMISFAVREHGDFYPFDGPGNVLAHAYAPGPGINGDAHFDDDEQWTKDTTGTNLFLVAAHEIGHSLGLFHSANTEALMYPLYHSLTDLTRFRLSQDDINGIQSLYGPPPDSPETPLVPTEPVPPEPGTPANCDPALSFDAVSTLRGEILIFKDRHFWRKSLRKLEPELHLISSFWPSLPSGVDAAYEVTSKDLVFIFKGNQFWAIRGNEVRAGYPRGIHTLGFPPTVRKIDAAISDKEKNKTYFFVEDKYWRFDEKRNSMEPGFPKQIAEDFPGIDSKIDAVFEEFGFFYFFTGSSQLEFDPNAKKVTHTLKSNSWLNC

MMP-14 [15] = molecular target: T3, MMP-14; conditions: read-out: Ki, MMP-14
MMP-1 = molecular target: T5, MMP-1 (Homo sapiens, UniProt P03956); assay: biochemical; conditions: read-out: inhibition of MMP-1
T5 sequence (P03956 100-469): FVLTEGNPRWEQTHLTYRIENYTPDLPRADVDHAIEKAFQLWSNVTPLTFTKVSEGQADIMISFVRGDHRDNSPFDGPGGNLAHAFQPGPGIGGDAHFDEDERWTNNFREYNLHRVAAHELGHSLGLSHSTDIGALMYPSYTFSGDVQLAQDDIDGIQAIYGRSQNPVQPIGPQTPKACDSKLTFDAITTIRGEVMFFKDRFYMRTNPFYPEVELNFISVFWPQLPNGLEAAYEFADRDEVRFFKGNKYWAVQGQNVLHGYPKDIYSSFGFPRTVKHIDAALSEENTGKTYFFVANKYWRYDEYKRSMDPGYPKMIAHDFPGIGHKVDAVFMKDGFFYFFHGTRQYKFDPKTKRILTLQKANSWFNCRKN

human MMP-9 [16] = molecular target: T2, human MMP-9; conditions: read-out: Ki, MMP-9
human MMP-2 [17] = molecular target: T1, human MMP-2; conditions: read-out: Ki, MMP-2

In the case of NCCCCC(N)C(=O)Nc1ccc(Oc2ccc(S(=O)(=O)CC3CS3)cc2)cc1 (stereo not shown) [Compound 11b], the koff (human MMP-2 [1]) is reported as 0.00021 ± 9e-05 s⁻¹, the kon (human MMP-2 [1]) is reported as 3400 ± 100 M⁻¹ s⁻¹ and the half-life [2] is reported as 15.3 ± 1.9 min. For the same compound, the koff (human MMP-9 [3]) was 0.00042 ± 7e-05 s⁻¹, the kon (human MMP-9 [3]) was 270 ± 40 M⁻¹ s⁻¹ and the solubility (Water solubility; water, Water Solubility) was greater than 10000 µg/mL. It also gave a half-life [4] of 25.1 ± 5.2 min.
For O=S(=O)(CC1CS1)c1ccc(Oc2ccc(O)cc2)cc1 (stereo not shown) [p-hydroxylated metabolite], the Ki (human MMP-9 [5]) is given as 160 ± 80 nM and the Ki (human MMP-2 [6]) is given as 6 ± 3 nM.
In the case of Nc1ccc(Oc2ccc(S(=O)(=O)CC3CS3)cc2)cc1 (stereo not shown) [Compound 6, 4-[4-((Thiiran-2-yl)methylsulfonyl)phenoxy]benzamine.HCl salt], the “Half-life in liver microsomes, Human” value [7] is reported as greater than 60 min, the “Half-life in liver microsomes, Rat” value [8] is reported as 23.4 ± 0.7 min and the “Half-life in liver microsomes, Mouse” value [9] is reported as 27.3 ± 2.1 min.
In the case of N=C(N)NCCCC(N)C(=O)NC(CCCNC(=N)N)C(=O)Nc1ccc(Oc2ccc(S(=O)(=O)CC3CS3)cc2)cc1 (stereo not shown) [Compound 11e], the half-life [2] is reported as 5.9 ± 0.6 min, the solubility (Water solubility; water, Water Solubility) is reported as greater than 10000 µg/mL and the half-life [4] is reported as 11.8 ± 0.5 min.
In the case of O=S(=O)(CC1CS1)c1ccc(Oc2ccccc2)cc1 (stereo not shown) [SB-3CT], the “treatment in model of subarachnoid hemorrhage” value [10] is given as “effective”, the “treatment of viral-induced vascular leakage” value [11] is given as “effective” and the solubility (Water solubility; water, aqueous solubility) is given as roughly 2.45 µg/mL (≈ 0.008 mM). For the same compound, the histological damage ([12]; administration at 6 hours after ischemia) was “potently blocked”, the infarct volume ([12]; mouse transient ischemia) was 30 % of control and the neurobehavioral scores ([12]; mouse transient ischemia) was “significantly improved”. For the same compound, the “Ki values for other MMPs” value (other MMPs) was “in the μM range at best”.
With N=C(N)NCCCC(N)C(=O)Nc1ccc(Oc2ccc(S(=O)(=O)CC3CS3)cc2)cc1 (stereo not shown) [Compound 11d] the “mutagenic potential (Ames mutagenicity assay)” value [13] was “negative”, the half-life [7] was greater than 60 min and the half-life [2] was 25.4 ± 0.1 min. It also gave a half-life [8] of 59.3 ± 4.5 min, a solubility (Water solubility; water, Water Solubility) greater than 10000 µg/mL and a half-life [9] greater than 60 min. For the same compound, the half-life [4] was 29.5 ± 0.7 min.
In the case of NC(CCC(=O)O)C(=O)Nc1ccc(Oc2ccc(S(=O)(=O)CC3CS3)cc2)cc1 (stereo not shown) [Compound 11c], the koff (human MMP-2 [1]) is reported as 0.00018 ± 0.00016 s⁻¹, the kon (human MMP-2 [1]) is reported as 2500 ± 100 M⁻¹ s⁻¹ and the half-life [2] is reported as 27.9 ± 3.8 min. It also gave a Ki (human MMP-9 [3]) of 5.4 ± 0.3 µM, a koff (human MMP-9 [3]) of 0.0012 ± 7e-05 s⁻¹ and a kon (human MMP-9 [3]) of 2300 ± 100 M⁻¹ s⁻¹. It also gave a solubility (Water solubility; water, Water Solubility) greater than 10000 µg/mL and a half-life [4] of 32.8 ± 3.6 min.
For Nc1ccc(Oc2ccc(S(=O)(=O)CC3CS3)cc2)cc1O (stereo not shown) [Compound 22, 2-Amino-5-(4-((thiiran-2-ylmethyl)sulfonyl)phenoxy)phenol], the koff (MMP-14 [14]; read-out: koff, MMP-14) was 0.000702 ± 0.000161 s⁻¹, the kon (MMP-14 [14]; read-out: kon, MMP-14) was 2690 ± 270 M⁻¹ s⁻¹ and the koff (human MMP-2 [1]) was 0.00014 ± 7e-05 s⁻¹. The kon (human MMP-2 [1]) was 1700 ± 100 M⁻¹ s⁻¹, the Ki (MMP-7) was 116 ± 13 µM and the inhibition at 300 µM (MMP-3) was 54%. For the same compound, the Ki (MMP-14 [15]) was 260 ± 70 nM, the koff (human MMP-9 [3]) was 0.00053 ± 0.0001 s⁻¹ and the kon (human MMP-9 [3]) was 1070 ± 120 M⁻¹ s⁻¹. The inhibition at 300 µM (MMP-1) was 11%, the Ki (human MMP-9 [16]) was 490 ± 110 nM and the Ki (human MMP-2 [17]) was 78 ± 43 nM.
Cc1oc(=O)oc1COC(=O)Nc1ccc(Oc2ccc(S(=O)(=O)CC3CS3)cc2)cc1 (stereo not shown) [Compound 14] gave a Ki (human MMP-2 [1]) of 2400 ± 600 nM, an inhibition at 80 µM (human MMP-9 [3]; read-out: inhibition of MMP-9) of 37% and a solubility (Water solubility; Water Solubility, in 100% water, solubility calculated using ε of MIK-G6 (p-N-acetyl SB-3CT)) of 1.01 µg/mL (≈ 0.00212 mM). For the same compound, the half-life [4] was 1.6 ± 0.4 min.
With NCC(=O)Nc1ccc(Oc2ccc(S(=O)(=O)CC3CS3)cc2)cc1 (stereo not shown) [Compound 11a] the koff (human MMP-2 [1]) was 0.00082 ± 9e-05 s⁻¹, the kon (human MMP-2 [1]) was 1900 ± 600 M⁻¹ s⁻¹ and the “Half-life in human blood at 37° C.” value ([2]; human blood, 37° C.) was 27.1 ± 2.5 min. The koff (human MMP-9 [3]) was 0.00065 ± 6e-05 s⁻¹, the kon (human MMP-9 [3]) was 210 ± 40 M⁻¹ s⁻¹ and the Ki (human MMP-9 [16]) was 3100 ± 300 nM. The Ki (human MMP-2 [17]) was 440 ± 50 nM and the “Half-life in human plasma at 37° C.” value ([4]; human plasma, 37° C.) was 32.4 ± 2.7 min.
